pIC50: −log10 of the molar value. Read-outs that look alike come from different tables or passages of the source.
Biological target: T1, mutant B-RAF (Homo sapiens, UniProt P15056, V600E)
T1 construct: purchased Upstate (Charlottesville, Va.)
Test: RAF biochemical assay (MEK-1 phosphorylation, anti-phospho MEK1/2 detection)
Conditions: for inhibition at 10 µM: read-out: Mutant B-RAF % inhibition
Procedure: Materials: The RAF kinases and the anti-phospho MEK1/2 antibody were from Upstate (Charlottesville, Va.). The RAF substrate used was full length N-terminal GST-MEK-1, which was expressed in E. coli and purified in-house by HPLC. All proteins were aliquoted and stored at −80° C.
Compounds were serially diluted in assay buffer containing 1% DMSO and 20 μL of test compound at a concentration 3-fold more than the final concentration, and were added to a polypropylene V-well reaction plate. Vehicle control wells received buffer only with DMSO at equivalent concentrations to the test wells. […] These reaction plates were incubated at room temperature for 30 minutes. Capture of MEK-1 was initiated by transferring 50 μl of the reaction mixture to a Nunc Maxisorp™ microplate that is designed for non-specific protein capture. After 30 minute capture of MEK-1 at room temperature, this plate was washed with TBST (6×200 μL/well) to fully terminate the reaction. The plate was then blocked for 1 hour by the addition of 100 μl/well of Superblock™ in phosphate buffered saline (PBS) blocking reagent. Plate was again washed with TBST (6 times with 200 μL/well), followed by the addition of 70 μL/well of Upstate anti-phospho MEK 1/2 diluted 1:1000 in Pierce Superblock (PBS). After a 60 minute incubation, this plate was washed with TBST (6 times with 200 μL/well), and 70 μL of the secondary antibody (Pierce Alkaline Phosphatase tagged goat anti-rabbit) prepared at 1:4000 in Superblock, were added. After a 45 minute incubation at room temperature, the wells of the microplate were washed with TBST (6 times with 200 μL/well), and thereafter 100 μl/well of Attophos™ fluorescent alkaline phosphatase substrate was added according to the manufacturer's instructions (JBL Scientific).

T1 sequence (P15056 whole entry V600E): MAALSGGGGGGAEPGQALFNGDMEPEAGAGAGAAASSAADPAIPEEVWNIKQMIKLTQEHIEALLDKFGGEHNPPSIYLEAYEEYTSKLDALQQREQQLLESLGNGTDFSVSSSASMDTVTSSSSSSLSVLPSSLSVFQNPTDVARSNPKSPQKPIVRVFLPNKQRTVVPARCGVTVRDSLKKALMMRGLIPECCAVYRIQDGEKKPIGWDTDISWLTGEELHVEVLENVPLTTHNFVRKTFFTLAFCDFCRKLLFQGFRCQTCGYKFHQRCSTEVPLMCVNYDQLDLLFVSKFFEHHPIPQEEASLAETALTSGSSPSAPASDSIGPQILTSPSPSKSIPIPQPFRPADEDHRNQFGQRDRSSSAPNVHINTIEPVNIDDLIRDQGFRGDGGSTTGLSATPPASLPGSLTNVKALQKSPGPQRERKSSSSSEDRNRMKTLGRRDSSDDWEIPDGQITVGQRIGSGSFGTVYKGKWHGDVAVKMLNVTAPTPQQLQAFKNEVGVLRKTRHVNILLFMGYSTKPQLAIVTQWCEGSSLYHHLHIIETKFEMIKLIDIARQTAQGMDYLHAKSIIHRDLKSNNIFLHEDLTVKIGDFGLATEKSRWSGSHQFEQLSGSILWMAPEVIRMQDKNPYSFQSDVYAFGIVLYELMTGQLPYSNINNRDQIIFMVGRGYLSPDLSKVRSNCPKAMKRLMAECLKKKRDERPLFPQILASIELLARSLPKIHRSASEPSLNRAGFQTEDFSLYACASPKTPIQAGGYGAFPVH

inhibition at 10 µM [%]	pIC50 (read-out: Mutant B-RAF IC50)	SMILES	also measured
42		CC(=O)N1CCC(Nc2nccc(-c3c(-c4ccccc4C)nc4occn34)n2)CC1 [Example 303, N-(1-acetylpiperidin-4-yl)-4-[6-(2-methylphenyl)imidazo[2,1-b][1,3]oxazol-5-yl]pyrimidin-2-amine]	
	5.40	CCOc1ccc(NC(=O)N2CCC[C@@H](Nc3nccc(-c4c(-c5cccc(OC)c5)nc5sccn45)n3)C2)cc1 [Example 329, (3R)-N-(4-ethoxyphenyl)-3-({4-[6-(3-methoxyphenyl)imidazo[2,1-b][1,3]thiazol-5-yl]pyri-midin-2-yl}amino)piperidine-1-carboxamide]	
	5.40	COc1cccc(-c2nc3sccn3c2-c2ccnc(N[C@@H]3CCCN(S(=O)(=O)C4CC4)C3)n2)c1 [Example 325, N-[(3R)-1-(cyclopropylsulfonyl)piperidin-3-yl]-4-[6-(3-methoxyphenyl)imidazo[2,1-b][1,3]thiazol-5-yl]pyrimidin-2-amine]	
47		c1ccc2cc(-c3nc4sccn4c3-c3ccnc(NC4CCNCC4)n3)ccc2c1 [Example 244, 4-[6-(2-naphthyl)imidazo[2,1-b][1,3]thiazol-5-yl]-N-piperidin-4-ylpyrimidin-2-amine]	
	5.49	COc1cccc(-c2nc3occn3c2-c2ccnc(NC3CCNCC3)n2)c1 [Example 337, 4-[6-(3-methoxyphenyl)imidazo[2,1-b][1,3]oxazol-5-yl]-N-piperidin-4-ylpyrimidin-2-amine]	
	5.61	N#Cc1ccc(-c2nc3sccn3c2-c2ccnc(N[C@@H]3CCCN(S(=O)(=O)c4ccc(Cl)cc4)C3)n2)cc1 [Example 360, 4-{5-[2-({(3R)-1-[(4-chlorophenyl)sulfonyl]piperidin-3-yl}amino)pyrimidin-4-yl]imidazo[2,1-b][1,3]thiazol-6-yl}benzonitrile]	
	5.80	O=S(=O)(c1ccc(Cl)cc1)N1CCC[C@@H](Nc2nccc(-c3c(-c4cccc(CO)c4)nc4sccn34)n2)C1 [Example 396, (3-{5-[2-({(3R)-1-[(4-chlorophenyl)sulfonyl]piperidin-3-yl}amino)pyrimidin-4-yl]imidazo[2,1-b][1,3]thiazol-6-yl}phenyl)methanol]	
	7.34	O=S(=O)(C1CC1)N1CCC(Nc2nccc(-c3c(-c4cccc(O)c4)nc4occn34)n2)CC1 [Example 339, 3-[5-(2-{[1-(cyclopropylsulfonyl)piperidin-4-yl]amino}pyrimidin-4-yl)imidazo[2,1-b][1,3]oxazol-6-yl]phenol]	
73		CS(=O)(=O)N1CCC(Nc2nccc(-c3c(-c4ccc(F)cc4Cl)nc4occn34)n2)CC1 [Example 312, 4-[6-(2-chloro-4-fluorophenyl)imidazo[2,1-b][1,3]oxazol-5-yl]-N-[1-(methylsulfonyl)piperidin-4-yl]pyrimidin-2-amine]	
35		N#Cc1cccc(-c2nc3sccn3c2-c2ccnc(N[C@@H]3CCN(S(=O)(=O)c4ccc(Cl)cc4)C3)n2)c1 [Example 285, 3-{5-[2-({(3R)-1-[(4-chlorophenyl)sulfonyl]pyrrolidin-3-yl}amino)pyrimidin-4-yl]imidazo[2,1-b][1,3]thiazol-6-yl}benzonitrile]	
39		Fc1ccc(-c2nc3occn3c2-c2ccnc(NC3CCNCC3)n2)c(Cl)c1 [Example 301, 4-[6-(2-chloro-4-fluorophenyl)imidazo[2,1-b][1,3]oxazol-5-yl]-N-piperidin-4-ylpyrimidin-2-amine]	

The remaining lines, values behind:

SMILES	inhibition at 10 µM [%]	pIC50 (read-out: Mutant B-RAF IC50)	also measured
Nc1c(Cl)c(Cl)nc(C(=O)N2CCC(Nc3nccc(-c4c(-c5ccc(F)cc5)nc5occn45)n3)CC2)c1Cl [Example 209, N-{1-[(4-amino-3,5,6-trichloropyridin-2-yl)carbonyl]piperidin-4-yl}-4-[6-(4-fluorophenyl)imidazo[2,1-b][1,3]oxazol-5-yl]pyrimidin-2-amine]	49		
Cc1cn2c(-c3ccnc(N[C@@H]4CCCN(C(=O)NCc5ccco5)C4)n3)c(-c3ccc(F)cc3)nc2s1 [Example 93, (3R)-3-({4-[6-(4-fluoro-phenyl)-2-methylimidazo[2,1-b][1,3]thiazol-5-yl]pyrimidin-2-yl}amino)-N-(2-furylmethyl)piperidine-1-carboxamide]	61		
COc1ccc(NC(=O)N2CCC(Nc3nccc(-c4c(-c5ccc(F)cc5)nc5occn45)n3)CC2)cc1 [Example 173, 4-({4-[6-(4-fluorophenyl)imidazo[2,1-b][1,3]oxazol-5-yl]pyrimidin-2-yl}amino)-N-(4-methoxyphenyl)piperidine-1-carboxamide]		5.59	
O=S(=O)(c1ccc(F)cc1)N1CCC(Nc2nccc(-c3c(-c4ccc(F)c(F)c4)nc4sccn34)n2)CC1 [Example 217, 4-[6-(3,4-difluorophenyl)imidazo[2,1-b][1,3]thiazol-5-yl]-N-{1-[(4-fluorophenyl)sulfonyl]piperidin-4-yl}pyrimidin-2-amine]	48		
O=C(CCc1ccccc1)N1CCC(Nc2nccc(-c3c(-c4ccc(F)cc4)nc4occn34)n2)CC1 [Example 189, 4-[6-(4-fluorophenyl)imidazo[2,1-b][1,3]oxazol-5-yl]-N-[1-(3-phenylpropanoyl)piperidin-4-yl]pyrimidin-2-amine]		5.71	
O=[N+]([O-])c1ccccc1-c1nc2sccn2c1-c1ccnc(N[C@@H]2CCCN(S(=O)(=O)c3ccc(Cl)cc3)C2)n1 [Example 131, N-{(3R)-1-[(4-chlorophenyl)sulfonyl]piperidin-3-yl}-4-[6-(2-nitrophenyl)imidazo[2,1-b][1,3]thiazol-5-yl]pyrimidin-2-amine]		7.60	
O=C(NCCc1ccc(F)cc1)N1CCC[C@@H](Nc2nccc(-c3c(-c4ccc(F)cc4)nc4occn34)n2)C1 [Example 71, (3R)-N-[2-(4-fluorophenyl)ethyl]-3-({4-[6-(4-fluorophenyl)imidazo[2,1-b][1,3]oxazol-5-yl]pyrimidin-2-yl}amino)piperidine-1-carboxamide]	16		
O=C(O)c1ccc(S(=O)(=O)N2CCC(Nc3nccc(-c4c(-c5ccc(F)cc5)nc5occn45)n3)CC2)cc1 [Example 229, 4-{[4-({4-[6-(4-fluorophenyl)imidazo[2,1-b][1,3]oxazol-5-yl]pyrimidin-2-yl}amino)piperidin-1-yl]sulfonyl)benzoic acid]		5.86	
O=C(CCc1ccccc1)N1CCC[C@@H](Nc2nccc(-c3c(-c4ccc(F)cc4)nc4occn34)n2)C1 [Example 38, 4-[6-(4-fluorophenyl)imi-dazo[2,1-b][1,3]oxazol-5-yl]-N-[(3R)-1-(3-phenylpro-panoyl)piperidin-3-yl]pyr-imidin-2-amine]			pIC50: 5.54
Fc1ccc(CN2CCCC(Nc3nccc(-c4c(-c5ccc(F)cc5)nc5sccn45)n3)C2)cc1 (stereo not shown) [Example 4]	55		
O=S(=O)(c1cccc(F)c1)N1CCC(Nc2nccc(-c3c(-c4ccc(F)cc4)nc4occn34)n2)CC1 [Example 237, 4-[6-(4-fluorophenyl)imidazo[2,1-b][1,3]oxazol-5-yl]-N-{1-[(3-fluorophenyl)sulfonyl]piper-idin-4-yl}pyrimidin-2-amine]			inhibition at 5 µM (@ 5 uM): 85%
Nc1cccc(-c2nc3sccn3c2-c2ccnc(N[C@@H]3CCCN(S(=O)(=O)c4ccc(Cl)cc4)C3)n2)c1 [Example 122, 4-[6-(3-aminophenyl)imidazo[2,1-b][1,3]thiazol-5-yl]-N-{(3R)-1-[(4-chlorophenyl)sulfonyl]piper-idin-3-yl}pyrimidin-2-amine]		6.37	
Cc1nc(C)c(S(=O)(=O)N2CCC[C@@H](Nc3nccc(-c4c(-c5ccc(F)cc5)nc5occn45)n3)C2)s1 [Example 65, N-{(3R)-1-[(2,4-dimethyl-1,3-thiazol-5-yl)sulfonyl]piper-idin-3-yl}-4-[6-(4-fluorophenyl)imidazo[2,1-b][1,3]oxazol-5-yl]pyrimidin-2-amine]	42		
O=C(C1CCCCC1)N1CCC[C@@H](Nc2nccc(-c3c(-c4ccc(F)cc4)nc4occn34)n2)C1 [Example 31, N-[(3R)-1-(cyclohexylcarbonyl)piperidin-3-yl]-4-[6-(4-fluorophenyl)imidazo[2,1-b][1,3]oxazol-5-yl]pyrimidin-2-amine]		5.53	
O=S(=O)(c1cc(C(F)(F)F)cc(C(F)(F)F)c1)N1CCC(Nc2nccc(-c3c(-c4ccc(F)cc4)nc4occn34)n2)CC1 [Example 207, N-(1-{[3,5-bis(trifluoro-methyl)phenyl]sulfonyl}piperidin-4-yl)-4-[6-(4-fluorophenyl)imidazo[2,1-b][1,3]oxazol-5-yl]pyrimidin-2-amine]		7.57	
CN(C)c1ccc(C(=O)N2CCC(Nc3nccc(-c4c(-c5ccc(F)c(F)c5)nc5sccn45)n3)CC2)cc1 [Example 221, 4-[6-(3,4-difluorophenyl)imidazo[2,1-b][1,3]thiazol-5-yl]-N-{1-[4-(dimethylamino)benzoyl]piper-idin-4-yl}pyrimidin-2-amine]	42		
O=C(c1ccncc1)N1CCC(Nc2nccc(-c3c(-c4ccc(F)cc4)nc4occn34)n2)CC1 [Example 165, 4-[6-(4-fluorophenyl)imidazo[2,1-b][1,3]oxazol-5-yl]-N-(1-isonicotinoylpiperidin-4-yl)pyrimidin-2-amine]	33		

From patent publication US7501430B2 (ArQule, Inc., priority 2006, dated 2009)
